From ChEMBL document CHEMBL3137667, “[Drug-induced liver injury; fourteenth updated edition of the bibliographic database of liver injuries and related drugs]” (Gastroenterol Clin Biol, 2004)

Assays:
[1] = human
[2] = human; remark: listed apart in the source
[3] = Highest frequency of acute liver toxicity observed during clinical trials, expressed as a percentage. [column '% AIGUE' in source]; settings: human
[4] = human; remark: listed apart in the source
[5] = human, serum
[6] = human; remark: listed apart in the source
[7] = Highest frequency of moderate liver toxicity observed during clinical trials, expressed as a percentage. [column '% BIOL' in source]; settings: human
[8] = human; remark: listed apart in the source
[9] = human, serum; remark: listed apart in the source
[10] = human; remark: listed apart in the source
[11] = human; remark: listed apart in the source
[12] = human; remark: listed apart in the source
[13] = human, serum, 4383 h
[14] = human; remark: listed apart in the source
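Wherever Hepatotoxicity (association with vascular disease) is given: count of indexed literature references reporting vascular liver injury in humans, e.g. peliosis hepatitis, hepatic veno-occlusive disease or Budd-Chiari syndrome.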
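Wherever Hepatotoxicity (benign tumour) is given: value is a count of indexed literature references citing a benign tumour confirmed by histopathology.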
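Wherever Hepatotoxicity (choleostasis) is given: human cholestatic liver injury, shown by histopathology or by peak ALT or AST elevation over alkaline phosphatase ratio below 2, value counts indexed literature reports.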
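Wherever Hepatotoxicity (chronic liver disease) is given: chronic liver injury confirmed by histopathology or persistently raised serum aminotransferase activity beyond 6 months, value given as the count of indexed literature references.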
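Wherever Hepatotoxicity (cirrhosis) is given: value is a count of indexed literature references reporting cirrhosis confirmed by histopathology.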
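Wherever Hepatotoxicity (cytolytic) is given: human cytolytic liver injury, shown by histopathology or by a ratio above 5 of peak ALT or AST elevation to alkaline phosphatase elevation, value counts indexed references.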
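Wherever Hepatotoxicity (granulomatous hepatitis) is given: value is a count of indexed literature references reporting granulomatous liver disease confirmed by histopathology.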
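Wherever Hepatotoxicity (malignant tumour) is given: malignant tumour confirmed by histopathology, value gives the count of indexed literature references reporting it.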
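Wherever Hepatotoxicity (severe hepatitis) is given: human clinical data: severe hepatitis, meaning potentially life-threatening liver failure or clinically observed cases, the value counts how many indexed literature references report it.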
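Wherever Hepatotoxicity (steatosis) is given: steatosis confirmed by histopathology, value is the count of indexed references.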

Compound | Hepatotoxicity (benign tumour) [1] | Hepatotoxicity (association with vascular disease) [2] | Hepatotoxicity (acute) [3] [%] | Hepatotoxicity (choleostasis) [4] | Hepatotoxicity (moderate) [5] | Hepatotoxicity (steatosis) [6] | Hepatotoxicity (moderate) [7] [%] | Hepatotoxicity (granulomatous hepatitis) [8] | Hepatotoxicity (acute) [9] | Hepatotoxicity (cirrhosis) [10] | Hepatotoxicity (cytolytic) [11] | Hepatotoxicity (severe hepatitis) [12] | Hepatotoxicity (chronic liver disease) [13] | Hepatotoxicity (malignant tumour) [14] | Hepatotoxicity (acute) ([3]; Liver) [%] | Hepatotoxicity (moderate) ([7]; Liver) [%] | Hepatotoxicity (severe hepatitis) ([12]; Liver)
CSc1ccc(C(=O)c2[nH]c(=O)[nH]c2C)cc1 [ENOXIMONE] | 0 | 0 | 0 | 0 | 3 | 0 | 6 | 0 | 0 | 0 | 0 | 0 | 0 | 0 |  |  | 
CAPROMAB PENDETIDE | 0 | 0 | 0 | 0 | 1 | 0 | < 1 | 0 | 0 | 0 | 0 | 0 | 0 | 0 |  |  | 
COc1cc2nc(N3CCN(C(=O)c4ccco4)CC3)nc(N)c2cc1OC [PRAZOSIN] | 0 | 0 |  | 1 | 0 | 0 |  | 0 | 1 | 0 | 0 |  | 0 | 0 | 0.2 | 0 | 0
CO/N=C(\C(=O)N[C@@H]1C(=O)N2C(C(=O)O)=C(CSc3cnns3)CS[C@H]12)c1csc(N)n1 [CEFUZONAM] | 0 | 0 | 0 | 0 | 19 | 0 | 14.3 | 0 | 0 | 0 | 0 | 0 | 0 | 0 |  |  | 
CO[C@@H]1C[C@](C)(O)Cc2cc3c(c(O)c21)C(=O)c1c(O)cc2c(c1C3=O)O[C@@H]1O[C@@]2(C)[C@H](O)[C@@H](N(C)C)[C@@H]1O [MENOGARIL] | 0 | 0 | 0 | 0 | 4 | 0 | 16.7 | 0 | 0 | 0 | 0 | 0 | 0 | 0 |  |  | 
NYSTATIN | 0 | 0 | 0 | 0 | 3 | 0 | 33.3 | 0 | 1 | 0 | 1 | 0 | 0 | 0 |  |  | 
N[C@H](Cc1cc(I)c(Oc2cc(I)c(O)c(I)c2)c(I)c1)C(=O)O [DEXTROTHYROXINE] | 0 | 0 | 0 | 0 | 1 | 0 | 40.2 | 0 | 0 | 0 | 0 | 0 | 0 | 0 |  |  | 
CN(C)CCN1C(=O)c2cccc3cc(N)cc(c23)C1=O [AMONAFIDE] | 0 | 0 | 0 | 0 | 5 | 0 | 44 | 0 | 0 | 0 | 0 | 0 | 0 | 0 |  |  | 
CO/N=C(\C(=O)N[C@@H]1C(=O)N2C(C(=O)[O-])=C(C[N+]34CCC(C(N)=O)(CC3)CC4)CS[C@H]12)c1nsc(N)n1 [CEFCLIDIN] | 0 | 0 | 0 | 0 | 49 | 0 | 40 | 0 | 0 | 0 | 0 | 1 | 0 | 0 |  |  | 
CO[C@H]1Cc2c(O)cc(O)cc2O[C@@H]1c1ccc(O)c(O)c1 [MECIADANOL] | 0 | 0 | 0 | 0 | 1 | 0 | 34.8 | 0 | 0 | 0 | 0 | 0 | 0 | 0 |  |  | 
CO/N=C(\C(=O)N[C@@H]1C(=O)N2C(C(=O)OCOC(=O)C(C)(C)C)=C(/C=C\c3scnc3C)CS[C@H]12)c1csc(N)n1 [CEFDITOREN PIVOXIL] | 0 | 0 | 0 | 0 | 41 | 0 | 37.5 | 0 | 0 | 0 | 0 | 0 | 0 | 0 |  |  | 
Cc1[nH]c(=O)c(C#N)cc1-c1ccncc1 [MILRINONE] | 0 | 0 | 0 | 0 | 2 | 0 | 2 | 0 | 0 | 0 | 0 | 0 | 0 | 0 |  |  | 
NCCCC(N)(C(=O)O)C(F)F (centres undefined) [EFLORNITHINE] | 0 | 0 | 0 | 0 | 1 | 0 | 0 | 0 | 0 | 0 | 0 | 0 | 0 | 0 |  |  | 
CO/N=C(\C(=O)N[C@@H]1C(=O)N2C(C(=O)[O-])=C(C[n+]3cccc4c3CCC4)CS[C@H]12)c1csc(N)n1 [CEFPIROME] | 0 | 0 | 0 | 0 | 62 | 0 | 33.3 | 0 | 0 | 0 | 0 | 0 | 0 | 0 |  |  | 
COC(=O)C1=C(C#N)NC(C)=C(C(=O)OC(C)C)C1c1cccc([N+](=O)[O-])c1 (centres undefined) [NILVADIPINE] | 0 | 0 | 0 | 0 | 3 | 0 | 6.3 | 0 | 0 | 0 | 0 | 0 | 0 | 0 |  |  | 
CO/N=C(\C(=O)N[C@@H]1C(=O)N2C(C(=O)[O-])=C(C[N+]3(C)CCCC3)CS[C@H]12)c1csc(N)n1 | 0 | 0 |  | 0 | 52 | 0 |  | 0 | 0 | 0 | 0 |  | 0 | 0 | 0 | 37.5 | 0
